What was measured:
Test in all cases: relative viability (nuclei count vs DMSO), 5 days (fraction); higher = more cells survive
Metformin + Linsitinib = compound: CN(C)C(=N)NC(=N)N [Metformin] + C[C@]1(O)C[C@@H](c2nc(-c3ccc4ccc(-c5ccccc5)nc4c3)c3c(N)nccn32)C1 [Linsitinib] (partner 1 µM)
Outline: (§1)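 Nuclei were stained with Hoechst during a one-step fixation (final 0.05% Triton X-100, 1% formaldehyde, 1 ug/ml Hoechst) carried out 5 days after dosing, then counted on 4× images. The cells, lung cancer lines in 1536-well plates, had been dosed by pin tool the day after seeding with one drug alone or a fixed anchor-drug dose plus five library-drug doses (not always all listed) in √10 steps. Relative viability is the nuclei count in treated wells divided by that in vehicle wells, and each value is the median of duplicate plates.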

Metformin + OSI-027 = compound: CN(C)C(=N)NC(=N)N [Metformin] + COc1cccc2cc(-c3nc([C@H]4CC[C@H](C(=O)O)CC4)n4ncnc(N)c34)[nH]c12 [OSI-027] (partner 0.5 µM)
Outline: as §1

Apatinib + Luminespib = compound: N#CC1(c2ccc(NC(=O)c3cccnc3NCc3ccncc3)cc2)CCCC1 [Apatinib] + CCNC(=O)c1noc(-c2cc(C(C)C)c(O)cc2O)c1-c1ccc(CN2CCOCC2)cc1 [Luminespib] (partner 0.01 µM)
Outline: as §1

Metformin + Phenformin = compound: CN(C)C(=N)NC(=N)N [Metformin] + N=C(N)NC(=N)NCCc1ccccc1 [Phenformin] (partner 250 µM)
Outline: as §1

Cell Line | relative viability (Metformin + Linsitinib; first compound 10 µM) | relative viability (Metformin + Linsitinib; first compound 31.62 µM) | relative viability (Metformin + Linsitinib; first compound 100 µM) | relative viability (Metformin + Linsitinib; first compound 316.23 µM) | relative viability (Metformin + Linsitinib; first compound 1000 µM) | relative viability (Metformin + OSI-027; first compound 10 µM) | relative viability (Metformin + OSI-027; first compound 31.62 µM) | relative viability (Metformin + OSI-027; first compound 100 µM) | relative viability (Metformin + OSI-027; first compound 316.23 µM) | relative viability (Metformin + OSI-027; first compound 1000 µM) | relative viability (Apatinib + Luminespib; first compound 0.08 µM) | relative viability (Apatinib + Luminespib; first compound 0.253 µM) | relative viability (Apatinib + Luminespib; first compound 0.8 µM) | relative viability (Apatinib + Luminespib; first compound 2.53 µM) | relative viability (Apatinib + Luminespib; first compound 8 µM) | relative viability (Metformin + Phenformin; first compound 10 µM) | relative viability (Metformin + Phenformin; first compound 31.62 µM) | relative viability (Metformin + Phenformin; first compound 100 µM) | relative viability (Metformin + Phenformin; first compound 316.23 µM) | relative viability (Metformin + Phenformin; first compound 1000 µM)
LOU-NH91 | 1.01 | 0.876 | 0.986 | 1.09 | 0.905 | 0.711 | 0.71 | 0.644 | 0.775 | 0.767 | 0.354 | 0.363 | 0.386 | 0.356 | 0.354 | 0.731 | 0.593 | 0.545 | 0.755 | 0.734
LC-2-ad |  | 0.716 | 0.628 | 0.695 | 0.678 |  | 0.69 | 0.693 | 0.531 | 0.588 | 1.08 | 1.16 | 1.01 | 1.01 | 0.917 |  | 0.636 | 0.486 | 0.539 | 0.592
COR-L 105 | 1.06 | 1.23 | 0.977 | 0.87 | 0.815 | 0.736 | 0.895 | 0.736 | 0.773 | 0.521 | 0.796 | 0.789 | 0.896 | 0.697 | 0.67 | 0.727 | 0.61 | 0.65 | 0.568 | 0.494
NCI-H2126 | 0.633 | 0.735 | 0.687 | 0.703 | 0.721 | 0.682 | 0.725 | 0.8 | 0.787 | 0.656 | 0.963 | 0.774 | 0.985 | 0.826 | 0.832 | 0.533 | 0.591 | 0.544 | 0.483 | 0.515
NCI-H2228 | 0.542 | 0.973 |  | 0.583 | 0.889 | 0.81 | 0.551 | 0.456 | 0.513 | 0.792 | 0.126 | 0.122 | 0.129 | 0.13 | 0.126 | 0.27 | 0.213 | 0.372 | 0.275 | 0.322
NCI-H520 | 1.09 | 0.842 | 1.02 | 0.914 | 0.931 | 0.306 | 0.35 | 0.322 | 0.28 | 0.348 | 0.218 | 0.245 | 0.223 | 0.216 | 0.207 | 1.08 | 0.892 | 0.603 | 0.658 | 0.78
EMC-BAC-2 | 0.795 | 0.812 | 0.799 | 0.783 | 0.853 | 0.419 | 0.397 | 0.365 | 0.399 | 0.356 | 1.22 | 1.29 | 1.14 | 1.09 | 0.987 | 0.592 | 0.519 | 0.506 | 0.499 | 0.651
NCI-H647 | 1.11 | 1.14 | 1.24 | 1.19 | 1.2 | 0.721 | 0.853 | 0.538 | 0.485 | 0.924 | 0.235 | 0.144 | 0.267 | 0.136 | 0.23 | 0.614 | 0.58 | 0.62 | 0.521 | 0.653
NCI-H1944 | 1.36 | 1.39 | 1.34 | 1.27 | 1.26 | 0.428 | 0.401 | 0.402 | 0.425 | 0.455 | 0.701 | 0.773 | 0.667 | 0.644 | 0.494 | 0.205 | 0.2 | 0.19 | 0.169 | 0.209
NCI-H1395 | 0.997 | 1.15 | 0.934 | 1.02 | 0.385 | 0.74 | 0.899 | 0.669 | 0.693 | 0.75 | 0.713 | 0.686 | 0.784 | 0.604 | 0.527 | 0.448 | 0.429 | 0.525 | 0.423 | 0.467
SK-MES-1 | 0.979 | 0.927 | 0.993 | 0.939 | 1.02 | 0.446 | 0.551 | 0.532 | 0.432 | 0.454 | 0.732 | 0.796 | 0.701 | 0.727 | 0.795 | 0.504 | 0.534 | 0.545 | 0.495 | 0.512
EPLC-272H | 1.39 | 1.39 | 1.26 | 1.08 | 1.51 | 0.294 | 0.269 | 0.262 | 0.293 | 0.335 | 0.898 |  | 0.92 | 0.329 | 0.201 | 0.333 | 0.369 | 0.381 | 0.262 | 0.304
NCI-H2087 | 0.609 | 0.908 | 0.805 | 0.712 | 0.782 |  | 0.753 | 0.73 | 0.536 | 0.482 | 0.186 | 0.183 | 0.185 | 0.135 | 0.149 |  | 0.435 | 0.507 | 0.398 | 0.386
PC-3 [JPC-3] | 0.895 | 1.01 | 0.902 | 0.918 | 0.942 | 0.599 | 0.635 | 0.638 | 0.615 | 0.722 | 0.712 | 0.701 | 0.711 | 0.622 | 0.485 | 0.437 | 0.46 | 0.462 | 0.45 | 0.478
NCI-H661 | 0.761 | 0.966 | 0.812 | 0.767 | 0.677 | 0.6 | 0.617 | 0.487 | 0.613 | 0.642 | 0.973 | 0.873 | 0.898 | 0.95 | 0.865 | 0.284 | 0.262 | 0.264 | 0.267 | 0.267
NCI-H1563 | 1.22 | 1.34 | 1.19 | 0.955 | 0.893 | 0.742 | 0.797 | 0.778 | 0.722 | 0.866 | 0.534 | 0.536 | 0.533 | 0.548 | 0.543 | 0.704 | 0.702 | 0.647 | 0.663 | 0.56
NCI-H441 | 0.432 |  | 0.536 | 0.478 | 0.605 |  | 0.665 | 0.519 | 0.393 | 0.46 | 0.261 | 0.296 | 0.253 | 0.406 | 0.308 |  | 0.707 | 0.706 | 0.586 | 0.803
